Literature values in patent US4540572A, “Gel-like ointment containing indometacin” (Mepha AG, priority 1983, dated 1985).

Tested on: human skin
Settings: from the conventional ointment bases

In the case of `COc1ccc2c(c1)c(CC(=O)O)c(C)n2C(=O)c1ccc(Cl)cc1` [indometacin], the “absorption through the human skin” value is listed as “lack of its absorption”.
